Tested on: TRPV1-overexpressed HEK293 cells
Details: FIGS. 1F-1K, tested concentrations 0-5 μM

## CC(C)(C)c1cc2c(O)c(c1)Cc1cc(C(C)(C)C)cc(c1O)Cc1cc(C(C)(C)C)cc(c1O)Cc1cc(C(C)(C)C)cc(c1O)C2 [4-tert-Butylcalix[4]arene]
  toxicity on the cells of the calixarene derivative in the formulation: did not cause any toxicity

Reference: patent US11918659B2, “Materials and methods for inducing therapeutic hypothermia in a mammalian subject” (priority 2018, dated 2024)
